The source of these data is US20250034136A1 (Nimbus Wadjet, Inc., priority 2023, published 2025).

For assay [1], the target named is WRN (BV08), human Werner helicase (Uniprot Q14191, amino acids 517-1235 with L1074F point mutation) (Homo sapiens (Human), UniProt Q14191, L1074F). In words: WRN (BV08) ADP-Glo assay. Type of assay: biochemical. The note with it: class symbols A-E, read-out: ADP-Glo_hWRN_IC50. A general note: ADP-Glo first removes unused ATP, then detects ADP through luciferase.
In assay [2] the test system is p21 induction in HCT116 cells. In words: p21 induction in HCT116 cells. The class given is cell-based. The conditions noted are these: Homo sapiens, HCT-116, 24 h, HCT116 cells, 24 h compound incubation; read-out: P21_EC50. Put shortly:
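EC50 from non-linear curve fit of p21 immunofluorescence (800 nm), with GAPDH (700 nm) read alongside. DMSO and a reference WRN inhibitor served as low and high controls. Cells (2,000/well) got 11 compound concentrations in duplicate for 24 h at 37 °C.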

WRN (BV08), human Werner helicase (Uniprot Q14191, amino acids 517-1235 with L1074F point mutation), sequence (Q14191 other isoform, or with tags, fused parts or gaps L1074F (already in the parent)): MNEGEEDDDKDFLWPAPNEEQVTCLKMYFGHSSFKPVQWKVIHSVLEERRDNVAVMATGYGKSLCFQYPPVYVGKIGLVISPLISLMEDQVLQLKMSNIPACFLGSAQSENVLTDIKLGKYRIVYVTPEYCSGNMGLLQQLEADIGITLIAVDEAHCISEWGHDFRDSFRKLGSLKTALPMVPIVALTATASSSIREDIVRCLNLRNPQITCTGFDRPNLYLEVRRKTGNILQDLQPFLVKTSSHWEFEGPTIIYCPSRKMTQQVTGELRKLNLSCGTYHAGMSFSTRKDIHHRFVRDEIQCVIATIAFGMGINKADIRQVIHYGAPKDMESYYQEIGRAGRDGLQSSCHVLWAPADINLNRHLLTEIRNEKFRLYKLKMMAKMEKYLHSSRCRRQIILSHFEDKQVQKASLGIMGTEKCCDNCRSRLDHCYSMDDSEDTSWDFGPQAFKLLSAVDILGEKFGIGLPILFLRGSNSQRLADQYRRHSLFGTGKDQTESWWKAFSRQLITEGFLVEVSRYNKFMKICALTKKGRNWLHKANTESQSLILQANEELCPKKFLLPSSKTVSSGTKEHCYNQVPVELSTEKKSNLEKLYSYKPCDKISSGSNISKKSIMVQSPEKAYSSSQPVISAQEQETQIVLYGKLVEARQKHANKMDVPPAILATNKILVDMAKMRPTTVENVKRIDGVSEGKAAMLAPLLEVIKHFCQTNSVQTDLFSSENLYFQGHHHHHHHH

Regarding `CCc1c(N2CCN(C(=O)c3ccc4cn[nH]c4c3O)CC2)c(=O)c2ncc(C)nc2n1CC(=O)Nc1ccc(C(F)(F)F)cc1Cl` [I-33, N-(2-chloro-4-(trifluoromethyl)phenyl)-2-(6-ethyl-7-(4-(7-hydroxy-1H-indazole-6-carbonyl)piperazin-1-yl)-3-methyl-8-oxopyrido[2,3-b]pyrazin-5(8H)-yl)acetamide], the IC50 in assay [1] lay in the range of 5 to 50 nM. Further, in assay [2], the EC50 was above 5000 nM.

Turning to `CCc1c(N2CCN(C(=O)c3ncnc(C)c3O)CC2)c(=O)c2nc(/C=C3/CCOC3)cnc2n1CC(=O)Nc1ccc(C(F)(F)F)cc1Cl` [I-35, N-(2-chloro-4-(trifluoromethyl)phenyl)-2-(2-((dihydrofuran-3(2H)-ylidene)methyl)-6-ethyl-7-(4-(5-hydroxy-6-methylpyrimidine-4-carbonyl)piperazin-1-yl)-8-oxopyrido[2,3-b]pyrazin-5(8H)-yl)acetamide], the IC50 in assay [1] was in the range of 5 to 50 nM. Further, the EC50 in assay [2] lay within 2000 to 5000 nM.

`CCc1c(N2CCN(C(=O)c3ncnc(C)c3O)CC2)c(=O)c2nc(C=C3CCOCC3)cnc2n1CC(=O)Nc1ccc(C(F)(F)F)cc1Cl` [I-36, N-(2-chloro-4-(trifluoromethyl)phenyl)-2-(6-ethyl-7-(4-(5-hydroxy-6-methylpyrimidine-4-carbonyl)piperazin-1-yl)-8-oxo-2-((tetrahydro-4H-pyran-4-ylidene)methyl)pyrido[2,3-b]pyrazin-5(8H)-yl)acetamide]: the IC50 in assay [1] is 5 to 50 nM. Also, the EC50 in assay [2] fell in the range of 2000 to 5000 nM.

For the compound `CCc1c(N2CCN(C(=O)c3ncnc(C)c3O)CC2)c(=O)c2nc(C=C(C)C)cnc2n1CC(=O)Nc1ccc(C(F)(F)F)cc1Cl` [I-37, N-(2-chloro-4-(trifluoromethyl)phenyl)-2-(6-ethyl-7-(4-(5-hydroxy-6-methylpyrimidine-4-carbonyl)piperazin-1-yl)-2-(2-methylprop-1-en-1-yl)-8-oxopyrido[2,3-b]pyrazin-5(8H)-yl)acetamide], the IC50 in assay [1] was at most 5 nM. The EC50 in assay [2] was below 500 nM.

Consider `CCc1c(N2CCN(C(=O)c3ncnc(C)c3O)CC2)c(=O)c2nc(C=C3CCC3)cnc2n1CC(=O)Nc1ccc(C(F)(F)F)cc1Cl` [I-38, N-(2-chloro-4-(trifluoromethyl)phenyl)-2-(2-(cyclobutylidenemethyl)-6-ethyl-7-(4-(5-hydroxy-6-methylpyrimidine-4-carbonyl)piperazin-1-yl)-8-oxopyrido[2,3-b]pyrazin-5(8H)-yl)acetamide], for which the IC50 in assay [1] is at most 5 nM. In addition, in assay [2], the EC50 is below 500 nM.

On to `CCc1c(N2CCN(C(=O)c3ncnc(C)c3O)CC2)c(=O)c2nc(CCO)cnc2n1CC(=O)Nc1ccc(C(F)(F)F)cc1Cl` [I-41, N-(2-chloro-4-(trifluoromethyl)phenyl)-2-(6-ethyl-7-(4-(5-hydroxy-6-methylpyrimidine-4-carbonyl)piperazin-1-yl)-2-(2-hydroxyethyl)-8-oxopyrido[2,3-b]pyrazin-5(8H)-yl)acetamide], for which, in assay [1], the IC50 lay in the range of 100 to 500 nM. Besides, the EC50 in assay [2] is above 5000 nM.

For the compound `CCc1c(N2CCN(C(=O)c3ncnc(C)c3O)CC2)c(=O)c2nc(N3CCCCC3)cnc2n1CC(=O)Nc1ccc(C(F)(F)F)cc1Cl` [I-42, N-(2-chloro-4-(trifluoromethyl)phenyl)-2-(6-ethyl-7-(4-(5-hydroxy-6-methylpyrimidine-4-carbonyl)piperazin-1-yl)-8-oxo-2-(piperidin-1-yl)pyrido[2,3-b]pyrazin-5(8H)-yl)acetamide], the IC50 in assay [1] lay in the range of 5 to 50 nM. Moreover, the EC50 in assay [2] lay in the range of 2000 to 5000 nM.

On to `CCc1c(N2CCN(C(=O)c3ncnc(C)c3O)CC2)c(=O)c2ncc(Cl)nc2n1CC(=O)Nc1ccc(C(F)(F)F)cc1Cl` [I-43, N-(2-chloro-4-(trifluoromethyl)phenyl)-2-(3-chloro-6-ethyl-7-(4-(5-hydroxy-6-methylpyrimidine-4-carbonyl)piperazin-1-yl)-8-oxopyrido[2,3-b]pyrazin-5(8H)-yl)acetamide], for which, in assay [1], the IC50 lay within 100 to 500 nM. Moreover, the EC50 in assay [2] was above 5000 nM.

`CCc1c(N2CCN(C(=O)c3ncnc(C)c3O)CC2)c(=O)c2nc(N3CC(C)(O)C3)cnc2n1CC(=O)Nc1ccc(C(F)(F)F)cc1Cl` [I-44, N-(2-chloro-4-(trifluoromethyl)phenyl)-2-(6-ethyl-2-(3-hydroxy-3-methylazetidin-1-yl)-7-(4-(5-hydroxy-6-methylpyrimidine-4-carbonyl)piperazin-1-yl)-8-oxopyrido[2,3-b]pyrazin-5(8H)-yl)acetamide]: the IC50 in assay [1] fell in the range of 5 to 50 nM. For the same compound, in assay [2], the EC50 was above 5000 nM.

Turning to `CCc1c(N2CCN(C(=O)c3ncnc(C)c3O)CC2)c(=O)c2nc(N3CC(O)C3)cnc2n1CC(=O)Nc1ccc(C(F)(F)F)cc1Cl` [I-45, N-(2-chloro-4-(trifluoromethyl)phenyl)-2-(6-ethyl-7-(4-(5-hydroxy-6-methylpyrimidine-4-carbonyl)piperazin-1-yl)-2-(3-hydroxyazetidin-1-yl)-8-oxopyrido[2,3-b]pyrazin-5(8H)-yl)acetamide], the IC50 in assay [1] lay in the range of 5 to 50 nM. Also, the EC50 in assay [2] is above 5000 nM.

Take `CCc1c(N2CCN(C(=O)c3ncnc(C)c3O)CC2)c(=O)c2nccnc2n1CC(=O)Nc1ccc(C(F)(F)F)cc1Cl` [I-46, N-(2-chloro-4-(trifluoromethyl)phenyl)-2-(6-ethyl-7-(4-(5-hydroxy-6-methylpyrimidine-4-carbonyl)piperazin-1-yl)-8-oxopyrido[2,3-b]pyrazin-5(8H)-yl)acetamide]: the IC50 in assay [1] was 5 to 50 nM. For the same compound, the EC50 in assay [2] was above 5000 nM.

As for `CCc1c(N2CCN(C(=O)c3ncnc(C)c3O)CC2)c(=O)c2nc(N3CCC(C)(O)C3)cnc2n1CC(=O)Nc1ccc(C(F)(F)F)cc1Cl` (stereo not shown) [I-47, N-(2-chloro-4-(trifluoromethyl)phenyl)-2-(6-ethyl-2-(3-hydroxy-3-methylpyrrolidin-1-yl)-7-(4-(5-hydroxy-6-methylpyrimidine-4-carbonyl)piperazin-1-yl)-8-oxopyrido[2,3-b]pyrazin-5(8H)-yl)acetamide], in assay [1], the IC50 was in the range of 5 to 50 nM. In addition, the EC50 in assay [2] is above 5000 nM.

`CCc1c(N2CCN(C(=O)c3ncnc(C)c3O)CC2)c(=O)c2nc(C(=O)N(C)C)cnc2n1CC(=O)Nc1ccc(C(F)(F)F)cc1Cl` [I-48, 5-(2-((2-chloro-4-(trifluoromethyl)phenyl)amino)-2-oxoethyl)-6-ethyl-7-(4-(5-hydroxy-6-methylpyrimidine-4-carbonyl)piperazin-1-yl)-N,N-dimethyl-8-oxo-5,8-dihydropyrido[2,3-b]pyrazine-2-carboxamide]: the IC50 in assay [1] was in the range of 100 to 500 nM. The EC50 in assay [2] is above 5000 nM.

Turning to `CCc1c(N2CCN(C(=O)c3ncnc(C)c3O)CC2)c(=O)c2nc(CN3CCOCC3)cnc2n1CC(=O)Nc1ccc(C(F)(F)F)cc1Cl` [I-49, N-(2-chloro-4-(trifluoromethyl)phenyl)-2-(6-ethyl-7-(4-(5-hydroxy-6-methylpyrimidine-4-carbonyl)piperazin-1-yl)-2-(morpholinomethyl)-8-oxopyrido[2,3-b]pyrazin-5(8H)-yl)acetamide], the IC50 in assay [1] fell in the range of 50 to 100 nM. In addition, the EC50 in assay [2] is above 5000 nM.

Regarding `CCc1c(N2CCN(C(=O)c3ncnc(C)c3O)CC2)c(=O)c2nc(C(N)=O)cnc2n1CC(=O)Nc1ccc(C(F)(F)F)cc1Cl` [I-50, 5-(2-((2-chloro-4-(trifluoromethyl)phenyl)amino)-2-oxoethyl)-6-ethyl-7-(4-(5-hydroxy-6-methylpyrimidine-4-carbonyl)piperazin-1-yl)-8-oxo-5,8-dihydropyrido[2,3-b]pyrazine-2-carboxamide], the IC50 in assay [1] was in the range of 50 to 100 nM. Also, the EC50 in assay [2] is above 5000 nM.

For the compound `CCc1c(N2CCN(C(=O)c3c(O)ccnc3OC)CC2)c(=O)c2nc(N(C)C)cnc2n1CC(=O)Nc1ccc(C(F)(F)F)cc1Cl` [I-51, N-(2-chloro-4-(trifluoromethyl)phenyl)-2-(2-(dimethylamino)-6-ethyl-7-(4-(4-hydroxy-2-methoxynicotinoyl)piperazin-1-yl)-8-oxopyrido[2,3-b]pyrazin-5(8H)-yl)acetamide], in assay [1], the IC50 was in the range of 5 to 50 nM. For the same compound, the EC50 in assay [2] was below 500 nM.

As for `CCc1c(N2CCN(C(=O)c3ncnc(C)c3O)CC2)c(=O)c2nc(N3CCOCC3)cnc2n1CC(=O)Nc1ccc(C(F)(F)F)cc1Cl` [I-52, N-(2-chloro-4-(trifluoromethyl)phenyl)-2-(6-ethyl-7-(4-(5-hydroxy-6-methylpyrimidine-4-carbonyl)piperazin-1-yl)-2-morpholino-8-oxopyrido[2,3-b]pyrazin-5(8H)-yl)acetamide], the IC50 in assay [1] is 5 to 50 nM. Besides, the EC50 in assay [2] was above 5000 nM.

As to `CCc1c(N2CCN(C(=O)c3ncnc(C)c3O)CC2)c(=O)c2nc(N3CCC3)cnc2n1CC(=O)Nc1ccc(C(F)(F)F)cc1Cl` [I-53, 2-(2-(azetidin-1-yl)-6-ethyl-7-(4-(5-hydroxy-6-methylpyrimidine-4-carbonyl)piperazin-1-yl)-8-oxopyrido[2,3-b]pyrazin-5(8H)-yl)-N-(2-chloro-4-(trifluoromethyl)phenyl)acetamide], in assay [1], the IC50 lay in the range of 5 to 50 nM. Moreover, the EC50 in assay [2] was in the range of 500 to 2000 nM.

With `CCc1c(N2CCN(C(=O)c3ncnc(C)c3O)CC2)c(=O)c2nc(C(=O)NC)cnc2n1CC(=O)Nc1ccc(C(F)(F)F)cc1Cl` [I-54, 5-(2-((2-chloro-4-(trifluoromethyl)phenyl)amino)-2-oxoethyl)-6-ethyl-7-(4-(5-hydroxy-6-methylpyrimidine-4-carbonyl)piperazin-1-yl)-N-methyl-8-oxo-5,8-dihydropyrido[2,3-b]pyrazine-2-carboxamide], the IC50 in assay [1] was in the range of 100 to 500 nM. Also, in assay [2], the EC50 was above 5000 nM.

`CCc1c(N2CCN(C(=O)c3ncnc(C)c3O)CC2)c(=O)c2nc(/C=C/COC)cnc2n1CC(=O)Nc1ccc(C(F)(F)F)cc1Cl` [I-55, (E)-N-(2-chloro-4-(trifluoromethyl)phenyl)-2-(6-ethyl-7-(4-(5-hydroxy-6-methylpyrimidine-4-carbonyl)piperazin-1-yl)-2-(3-methoxyprop-1-en-1-yl)-8-oxopyrido[2,3-b]pyrazin-5(8H)-yl)acetamide]: the IC50 in assay [1] was in the range of 5 to 50 nM. In addition, the EC50 in assay [2] fell in the range of 500 to 2000 nM.
